# Tested on: A. baumannii strain ATCC19606
# Test: Minimum inhibitory concentration (MIC) determination, microbroth dilution (CLSI)
# Assay type: cell-based
# Conditions: Acinetobacter baumannii; A. baumannii ATCC19606; CAMHB; read after 20 hours; >=80% growth inhibition; read-out: ATCC19606 MIC
# Outline: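 CLSI broth microdilution in cation-adjusted Mueller Hinton broth with twofold compound dilutions and ~5×10^5 CFU/ml inoculum, incubated at 35±2 °C. MIC read after 20 h as lowest concentration inhibiting ≥80% of growth, by eye and OD 600 nm.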
row,Compound,MIC [µg/mL]
1,"NCCCC[C@@H]1NC(=O)[C@H](CCCN)NCc2cccnc2Sc2c(Cl)ccc(Cl)c2CNC(=O)[C@H](Cc2c[nH]c3ccccc23)NC1=O [Example 82, (11S,14S,17S)-14-(4-Amino-butyl)-11-(3-amino-propyl)-22,25-dichloro-17-(1H-indol-3-ylmethyl)-2-thia-4,10,13,16,19-pentaaza-tricyclo[19.4.0.0*3,8*]pentacosa-1(25),3(8),4,6,21,23-hexaene-12,15,18-trione]",4
2,"CCN1C(=O)[C@H](CCCCN)NC(=O)[C@H](CCCN)NCc2cccnc2Sc2c(C)cc(Br)cc2CNC(=O)[C@@H]1Cc1c[nH]c2ccccc12 [Example 84, (11S,14S,17S)-14-(4-Amino-butyl)-11-(3-amino-propyl)-23-bromo-16-ethyl-17-(1H-indol-3-ylmethyl)-25-methyl-2-thia-4,10,13,16,19-pentaaza-tricyclo[19.4.0.0*3,8*]pentacosa-1(25),3(8),4,6,21,23-hexaene-12,15,18-trione]",0.12
3,"CN1C(=O)[C@H](CCCCN)NC(=O)[C@H](Cc2cncn2C)NCc2cccnc2Sc2c(Cl)cc(C(F)(F)F)cc2CNC(=O)[C@@H]1Cc1c[nH]c2ccccc12 [Example 85, (11S,14S,17S)-14-(4-Amino-butyl)-25-chloro-17-(1H-indol-3-ylmethyl)-16-methyl-11-(3-methyl-3H-imidazol-4-ylmethyl)-23-trifluoromethyl-2-thia-4,10,13,16,19-pentaaza-tricyclo[19.4.0.0*3,8*]pentacosa-1(25),3(8),4,6,21,23-hexaene-12,15,18-trione]",0.5
4,"CN1C(=O)[C@H](CCCCN)NC(=O)[C@H](Cc2cccnc2)NCc2cccnc2Sc2c(Cl)cc(C(F)(F)F)cc2CNC(=O)[C@@H]1Cc1c[nH]c2ccccc12 [Example 86, (11S,14S,17S)-14-(4-Amino-butyl)-25-chloro-17-(1H-indol-3-ylmethyl)-16-methyl-11-pyridin-3-ylmethyl-23-trifluoromethyl-2-thia-4,10,13,16,19-pentaaza-tricyclo[19.4.0.0*3,8*]pentacosa-1(25),3(8),4,6,21,23-hexaene-12,15,18-trione]",16
5,"CN1C(=O)[C@H](CCCCN)NC(=O)[C@H](CCCN)NCc2cccnc2Sc2c(cc(-c3ccccc3)cc2C(F)(F)F)CNC(=O)[C@@H]1Cc1c[nH]c2ccccc12 [Example 87, (11S,14S,17S)-14-(4-Amino-butyl)-11-(3-amino-propyl)-17-(1H-indol-3-ylmethyl)-16-methyl-23-phenyl-25-trifluoromethyl-2-thia-4,10,13,16,19-pentaaza-tricyclo[19.4.0.0*3,8*]pentacosa-1(25),3,5,7,21,23-hexaene-12,15,18-trione]",8
6,"CN1C(=O)[C@H](CCCCN)NC(=O)[C@H](CCCN)NCc2cccnc2Sc2c(cc(Br)cc2C(F)(F)F)CNC(=O)[C@@H]1Cc1c[nH]c2ccccc12 [Example 88, (11S,14S,17S)-14-(4-Amino-butyl)-11-(3-amino-propyl)-23-bromo-17-(1H-indol-3-ylmethyl)-16-methyl-25-trifluoromethyl-2-thia-4,10,13,16,19-pentaaza-tricyclo[19.4.0.0*3,8*]pentacosa-1(25),3,5,7,21,23-hexaene-12,15,18-trione]",0.25
7,"CN1C(=O)[C@H](CCCCN)NC(=O)[C@H](CCCN)NCc2cccnc2Sc2c(Cl)cc(Br)cc2CNC(=O)[C@@H]1Cc1c[nH]c2ccccc12 [Example 89, (11S,14S,17S)-14-(4-Amino-butyl)-11-(3-amino-propyl)-23-bromo-25-chloro-17-(1H-indol-3-ylmethyl)-16-methyl-2-thia-4,10,13,16,19-pentaaza-tricyclo[19.4.0.0*3,8*]pentacosa-1(25),3,5,7,21,23-hexaene-12,15,18-trione]",0.12

# Reference: patent US10030047B2 (Hoffmann-La Roche Inc., priority 2015, dated 2018)
